Tests used:
eggs of Panonychus citri = assay: Effect on hatching of eggs of Panonychus citri, leaf disc method; type: in vivo; conditions: 1 ppm; for Hatching rate (%), Replicate 1 / Hatching rate (%), Replicate 2 / Hatching rate (%), Replicate 3 / Number of hatched larvae 5 days after insecticide delivery, Replicate 1 / Number of hatched larvae 5 days after insecticide delivery, Replicate 2 / Number of hatched larvae 5 days after insecticide delivery, Replicate 3: Panonychus citri eggs; for Hatching rate (%), Replicate 1 / Hatching rate (%), Replicate 2 / Hatching rate (%), Replicate 3: 5 days after delivery; for Number of hatched larvae 5 days after insecticide delivery, Replicate 1 / Number of hatched larvae 5 days after insecticide delivery, Replicate 2 / Number of hatched larvae 5 days after insecticide delivery, Replicate 3: leaf disc
eggs of Thrips = assay: Effect on hatching of eggs of Thrips, leaf disc method; type: in vivo; conditions: 100 ppm; for Hatching rate (%): 5 days after insecticide delivery
In short: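 Thrip egg hatching was tested by the leaf disc method on Vicia faba discs 2.0 cm across, placed over wetted filter paper. Egg numbers on each disc were counted under a microscope before treatment. Discs were then dipped for 10 seconds in clean water or a compound solution at 100 ppm. They were kept moist under normal conditions, and hatching was surveyed five days after insecticide delivery.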

Magnaporthe grisea = type: cell-based; conditions: 100 ppm; for Average antifungal rate (%) / Antifungal rate of Magnaporthe grisea (%), Replicate 1 / Antifungal rate of Magnaporthe grisea (%), Replicate 2 / Antifungal rate of Magnaporthe grisea (%), Replicate 3: 96-well plate; for Average antifungal rate (%): average of 3 replicates
[1] = tested on: eggs of Harmonia axyridis; assay: Effect on hatching of eggs of Harmonia axyridis, egg card immersion; type: in vivo; conditions: 100 ppm; for Number of hatched larvae 4 days after insecticide delivery, Replicate 1 / Number of hatched larvae 4 days after insecticide delivery, Replicate 2 / Number of hatched larvae 4 days after insecticide delivery, Replicate 3: Harmonia axyridis egg cards, immersed 30 seconds; for Hatching rate (%), Replicate 1 / Hatching rate (%), Replicate 2 / Hatching rate (%), Replicate 3: Harmonia axyridis eggs, 4 days after delivery
In short: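 Egg cards (~20 eggs each) dipped 30 s in 100 ppm insecticide, air dried and kept moist at 27° C; 5 cards per treatment, 3 replicates. Hatching assessed 4 days after treatment against pre-treatment egg counts, and control effect calculated by formula.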

Compound	inhibitory effect on the hatching of eggs of Panonychus citri (in words) (eggs of Panonychus citri)	Hatching rate (%), Replicate 1 (eggs of Panonychus citri) [%]	Hatching rate (%), Replicate 2 (eggs of Panonychus citri) [%]	Hatching rate (%), Replicate 3 (eggs of Panonychus citri) [%]	Number of hatched larvae 5 days after insecticide delivery, Replicate 1 (eggs of Panonychus citri)	Number of hatched larvae 5 days after insecticide delivery, Replicate 2 (eggs of Panonychus citri)	Number of hatched larvae 5 days after insecticide delivery, Replicate 3 (eggs of Panonychus citri)	inhibitory activity on the hatching of eggs of Thrips (in words) (eggs of Thrips)	Hatching rate (%) (eggs of Thrips; Replicate 1)	Hatching rate (%) (eggs of Thrips; Replicate 2)	Hatching rate (%) (eggs of Thrips; Replicate 3)	Number of hatched larvae 5 days after insecticide delivery (eggs of Thrips; Replicate 1)	Number of hatched larvae 5 days after insecticide delivery (eggs of Thrips; Replicate 2)	Number of hatched larvae 5 days after insecticide delivery (eggs of Thrips; Replicate 3)	inhibitory rate against Magnaporthe grisea (in words) (Magnaporthe grisea)	Average antifungal rate (%) (Magnaporthe grisea)	Antifungal rate of Magnaporthe grisea (%), Replicate 1 (Magnaporthe grisea) [%]	Antifungal rate of Magnaporthe grisea (%), Replicate 2 (Magnaporthe grisea) [%]	Antifungal rate of Magnaporthe grisea (%), Replicate 3 (Magnaporthe grisea) [%]	inhibitory activity on the hatching of eggs of Harmonia axyridis (in words) [1]	other results
CC(COc1ccc(Cl)cc1Cl)OS(=O)OCCF (stereo not shown) [Compound 1′]	good inhibitory effects	0.93	0.00	0.00	1	0	0	strong inhibitory activities	0.00	0.00	0.97	0	0	1	strong inhibitory rate	94.28	95.78	98.76	88.30	strong inhibitory activities	Number of hatched larvae 4 days after insecticide delivery, Replicate 1 [1]: 6; Number of hatched larvae 4 days after insecticide delivery, Replicate 2 [1]: 4; Number of hatched larvae 4 days after insecticide delivery, Replicate 3 [1]: 7; Hatching rate (%), Replicate 1 [1]: 5.88%; Hatching rate (%), Replicate 2 [1]: 4.17%; Hatching rate (%), Replicate 3 [1]: 6.60%
CC(C)(COc1ccc(Cl)cc1Cl)OS(=O)OCCF (stereo not shown) [Compound 10]	good inhibitory effects	1.01	0.00	0.00	1	0	0	strong inhibitory activities	0.99	0.00	0.00	1	0	0	strong inhibitory rate	94.26	93.89	94.52	94.36	strong inhibitory activities	Number of hatched larvae 4 days after insecticide delivery, Replicate 1 [1]: 4; Number of hatched larvae 4 days after insecticide delivery, Replicate 2 [1]: 3; Number of hatched larvae 4 days after insecticide delivery, Replicate 3 [1]: 7; Hatching rate (%), Replicate 1 [1]: 4.04%; Hatching rate (%), Replicate 2 [1]: 3.85%; Hatching rate (%), Replicate 3 [1]: 5.56%
CC(C)(COS(=O)OCCF)Oc1ccc(Cl)cc1Cl (stereo not shown) [Compound 10′]	good inhibitory effects	0.00	0.73	0.92	0	1	1	strong inhibitory activities	0.00	1.55	0.00	0	2	0	strong inhibitory rate	94.31	94.01	95.16	93.77	strong inhibitory activities	Number of hatched larvae 4 days after insecticide delivery, Replicate 1 [1]: 5; Number of hatched larvae 4 days after insecticide delivery, Replicate 2 [1]: 5; Number of hatched larvae 4 days after insecticide delivery, Replicate 3 [1]: 6; Hatching rate (%), Replicate 1 [1]: 5.75%; Hatching rate (%), Replicate 2 [1]: 5.26%; Hatching rate (%), Replicate 3 [1]: 4.92%
CCC(COc1ccc(Cl)cc1Cl)OS(=O)OCCF (stereo not shown) [Compound 19]	good inhibitory effects	0.00	0.00	0.00	0	0	0	strong inhibitory activities	0.00	0.83	0.00	0	1	0	strong inhibitory rate	95.57	97.23	95.14	94.35	strong inhibitory activities	Number of hatched larvae 4 days after insecticide delivery, Replicate 1 [1]: 3; Number of hatched larvae 4 days after insecticide delivery, Replicate 2 [1]: 5; Number of hatched larvae 4 days after insecticide delivery, Replicate 3 [1]: 4; Hatching rate (%), Replicate 1 [1]: 3.26%; Hatching rate (%), Replicate 2 [1]: 4.45%; Hatching rate (%), Replicate 3 [1]: 4.17%
CCC(COS(=O)OCCF)Oc1ccc(Cl)cc1Cl (stereo not shown) [Compound 19′]	good inhibitory effects	0.00	0.00	0.00	0	0	0	strong inhibitory activities	0.95	1.15	0.00	1	1	0	strong inhibitory rate	92.59	91.33	93.48	92.95	strong inhibitory activities	Number of hatched larvae 4 days after insecticide delivery, Replicate 1 [1]: 4; Number of hatched larvae 4 days after insecticide delivery, Replicate 2 [1]: 5; Number of hatched larvae 4 days after insecticide delivery, Replicate 3 [1]: 7; Hatching rate (%), Replicate 1 [1]: 4.49%; Hatching rate (%), Replicate 2 [1]: 5.21%; Hatching rate (%), Replicate 3 [1]: 6.48%
